{"source": "patent US9670226B2", "about": "“Sesquiterpenoids” (National Institute of Biological Sciences, Beijing, priority 2014, dated 2017)", "key": {"phosphorylation of IκBα": {"tested_on": "phosphorylation of IκBα", "assay": "LPS induced NF-κB activation: IκBα phosphorylation in RAW264.7 cells (western blot)", "format": "cell-based, mouse", "conditions": "Raw 264.7 cells pre-incubated with 4 μM for 2 h, 20 ng/ml LPS, 20 minutes, western blot"}, "IKKβ [1]": {"molecular_target": "T1, IKKβ (Homo sapiens, UniProt O14920)", "T1 sequence (O14920 1-756)": "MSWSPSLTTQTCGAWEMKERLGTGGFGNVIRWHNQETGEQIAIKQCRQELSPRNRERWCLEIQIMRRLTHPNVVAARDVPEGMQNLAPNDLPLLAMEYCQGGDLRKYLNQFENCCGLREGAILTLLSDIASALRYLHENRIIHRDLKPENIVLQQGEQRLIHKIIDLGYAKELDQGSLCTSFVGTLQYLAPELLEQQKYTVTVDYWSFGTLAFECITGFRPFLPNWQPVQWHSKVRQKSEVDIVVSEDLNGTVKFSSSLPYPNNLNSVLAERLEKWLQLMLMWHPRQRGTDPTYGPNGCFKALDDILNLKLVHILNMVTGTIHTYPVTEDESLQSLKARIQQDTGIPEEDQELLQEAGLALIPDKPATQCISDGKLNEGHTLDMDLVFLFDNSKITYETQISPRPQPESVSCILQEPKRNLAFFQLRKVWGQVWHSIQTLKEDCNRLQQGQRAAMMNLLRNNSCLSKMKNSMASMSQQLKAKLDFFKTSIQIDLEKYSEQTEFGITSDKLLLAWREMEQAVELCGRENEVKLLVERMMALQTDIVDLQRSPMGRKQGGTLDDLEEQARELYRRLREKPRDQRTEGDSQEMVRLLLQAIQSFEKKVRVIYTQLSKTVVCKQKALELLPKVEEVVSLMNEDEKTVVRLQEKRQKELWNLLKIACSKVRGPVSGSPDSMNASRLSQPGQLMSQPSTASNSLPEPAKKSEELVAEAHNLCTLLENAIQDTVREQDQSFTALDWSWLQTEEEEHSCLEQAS", "assay": "IKKβ kinase inhibition", "format": "biochemical", "conditions": "table of derivatives; read-out: IKKβ (IC50)", "description": "To further explore how (+)-ainsliadimer A inactivates IKKα/β, we conducted the molecular dynamics (MD) simulations using the first crystal structure of IKKβ^29 to sample the conformational states of IKKβ upon 223 binding. […] We next asked whether 223 could directly affect IKKβ kinase activity."}, "NF-κB activation": {"tested_on": "NF-κB activation", "assay": "NF-κB activation (SAR analogs and biotin probes)", "source_text": "In order to evaluate which of them is critical for the binding of 223, we individually mutated these nine cysteine residues of IKKβ into alanines."}, "[2]": {"tested_on": "BGC-823 human gastric adenocarcinoma xenograft", "assay": "BGC-823 xenograft in nude mice", "format": "in vivo", "conditions": "223 25 mg/kg, qdx8; HCPT 30 mg/kg, q6dx2", "experimental": "Next we further examined anti-tumor effect of 223 in vivo. Nude mice bearing a BGC-823 human gastric adenocarcinoma xenograft were treated with vehicle or 223 (25 mg/kg, qdx8) or 10-hydroxycamptothecin (HCPT), a widely used anti-tumor drug (30 mg/kg, q6dx2)."}, "IKKα": {"molecular_target": "T2, IKKα (Homo sapiens, UniProt O15111)", "T2 construct": "endogenous in cells; host or cells: 293T", "T2 sequence (O15111 whole entry)": "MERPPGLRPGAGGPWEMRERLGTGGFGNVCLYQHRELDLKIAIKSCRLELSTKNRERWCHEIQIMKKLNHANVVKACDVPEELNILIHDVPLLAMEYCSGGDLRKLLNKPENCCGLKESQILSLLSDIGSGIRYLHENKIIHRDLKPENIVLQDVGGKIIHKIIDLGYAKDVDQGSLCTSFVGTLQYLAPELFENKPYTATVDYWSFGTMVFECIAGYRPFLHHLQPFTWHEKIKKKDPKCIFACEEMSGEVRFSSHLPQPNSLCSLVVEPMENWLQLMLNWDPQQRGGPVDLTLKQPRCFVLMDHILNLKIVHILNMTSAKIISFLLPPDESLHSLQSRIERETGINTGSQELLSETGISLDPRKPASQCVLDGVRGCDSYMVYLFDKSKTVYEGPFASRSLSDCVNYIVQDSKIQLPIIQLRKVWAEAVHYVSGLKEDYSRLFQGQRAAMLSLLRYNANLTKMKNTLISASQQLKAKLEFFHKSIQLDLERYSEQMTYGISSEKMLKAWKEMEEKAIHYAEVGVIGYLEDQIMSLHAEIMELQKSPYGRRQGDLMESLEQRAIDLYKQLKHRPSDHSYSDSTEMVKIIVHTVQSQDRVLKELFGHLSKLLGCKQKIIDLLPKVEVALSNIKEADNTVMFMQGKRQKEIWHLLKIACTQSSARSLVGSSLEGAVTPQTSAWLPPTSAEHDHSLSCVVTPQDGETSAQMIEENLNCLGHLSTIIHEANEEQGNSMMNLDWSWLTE", "assay": "Pull-down from 293T cell lysates with streptavidin agarose beads", "format": "binding", "experimental": "(§1) To identify cellular proteins interacting with 223, we performed pull-down experiments using Probe and NC as the positive and negative probe, respectively. 293T cell lysates were incubated with streptavidin agarose beads which were pre-coupled with positive probe or negative probe. The proteins precipitated by streptavidin agarose beads were resolved by SDS-PAGE and stained with silver. […] We further monitored the presences of IKKα and IKKβ in the precipitates by immunoblotting."}, "IKKβ [3]": {"molecular_target": "T1, IKKβ", "assay": "Pull-down from 293T cell lysates with streptavidin agarose beads", "format": "binding", "experimental": "as §1"}, "recombinant Flag-IKKα": {"molecular_target": "T3, recombinant Flag-IKKα (Homo sapiens, UniProt O15111)", "T3 construct": "made in house; host or cells: 293T cells (transient transfection, anti-Flag purification)", "T3 sequence (O15111 whole entry)": "as above", "assay": "Binding to purified recombinant protein (SDS-PAGE, streptavidin blot)", "conditions": "increasing concentrations", "experimental": "To determine whether 223 directly binds to IKKα and IKKβ, we generated recombinant IKKα and IKKβ proteins for further analysis. 293T cells were transfected with Flag-IKKα or Flag-IKKβ plasmid, and the recombinant Flag-IKKα or Flag-IKKβ was captured by anti-Flag agarose beads and was then eluted off the beads using Flag peptide. The purified Flag-IKKα or Flag-IKKβ was incubated with DMSO or increasing concentrations of Probe, and then the mixtures were resolved by SDS-PAGE, followed by immunoblotting with streptavidin or anti-Flag antibody."}, "[4]": {"molecular_target": "T4, IKKβ C46 containing peptide (#1, #2; amino acids 41-53) (Homo sapiens, UniProt O14920)", "T4 construct": "encompasses amino acids 41-53 of human IKKβ; made in house; host or cells: chemical peptide synthesis", "assay": "Peptide binding by MALDI-TOF", "experimental": "(§2) This peptide was tested for binding to 223 and probe by using MALDI-TOF (Matrix-Assisted […] Desorption/Ionization Time of Flight). m/z values at 2,047.978 and 2,479.259 were well matched with the calculated weights of #1+223 and #1+Probe, respectively. […] As expected, the peptide #2 containing amino acids 41-53 of human IKKβ interacted with both 223 and probe."}, "[5]": {"tested_on": "IKKβ C46 containing peptide (#1, #2; amino acids 41-53)", "assay": "Peptide binding by MALDI-TOF", "set-up": "species or system human", "experimental": "as §2"}, "[6]": {"tested_on": "peptides 1A, 2A, 1S and 2S (cysteine 46 replaced by alanine or serine)", "assay": "Peptide binding by MALDI-TOF", "set-up": "species or system human"}, "[7]": {"tested_on": "IKKβ C215 containing peptides #3 and #4", "assay": "Peptide binding by MALDI-TOF", "set-up": "species or system human"}}, "data": [{"smiles": "C=C1C(=O)O[C@@H]2[C@@H]3[C@@H](C[C@@]4(O)[C@]3(O)CC[C@]43C(=O)C[C@H]4C(=C)CC[C@H]5C(=C)C(=O)O[C@@H]5[C@H]43)C(=C)CC[C@@H]12", "note": "[Compound 1]", "values": [{"measurement": "phosphorylation of IκBα", "setting": "phosphorylation of IκBα", "result": "effectively blocked"}, {"measurement": "IC50", "setting": "IKKβ [1]", "result": 0.0757, "unit": "µM"}]}, {"smiles": "C=C1C(=O)O[C@@H]2[C@@H]3[C@@H](C[C@@]45OC(C)(C)O[C@@]34CC[C@]53C(=O)C[C@H]4C(=C)CC[C@H]5C(=C)C(=O)O[C@@H]5[C@H]43)C(=C)CC[C@@H]12", "note": "[Compound 2]", "values": [{"measurement": "phosphorylation of IκBα", "setting": "phosphorylation of IκBα", "result": "effectively blocked"}, {"measurement": "IC50", "setting": "IKKβ [1]", "result": 0.056, "unit": "µM"}]}, {"smiles": "C=C1CC[C@H]2C(CN(C)C)C(=O)O[C@@H]2[C@@H]2[C@H]1C[C@@]13OC(C)(C)O[C@@]21CC[C@]31C(=O)C[C@H]2C(=C)CC[C@H]3C(CN(C)C)C(=O)O[C@@H]3[C@H]21", "note": "(stereo partly shown) [Compound 3]", "values": [{"measurement": "phosphorylation of IκBα", "setting": "phosphorylation of IκBα", "result": "effectively blocked"}, {"measurement": "IC50", "setting": "IKKβ [1]", "result": 0.0418, "unit": "µM"}]}, {"smiles": "C=C1C(=O)O[C@@H]2[C@@H]3[C@@H](C[C@H](O)[C@]34CC[C@]3(O)[C@@H]5[C@H]6OC(=O)C(=C)[C@@H]6CCC(=C)[C@@H]5C[C@]43O)C(=C)CC[C@@H]12", "note": "[Compound 224]", "values": [{"measurement": "biological activity (initial SAR)", "setting": "NF-κB activation", "result": "fully retain the biological activity"}]}, {"smiles": "C=C1CC[C@@H]2[C@H](OC(=O)[C@H]2C)[C@@H]2[C@H]1C[C@@]1(O)[C@]2(O)CC[C@]12C(=O)C[C@H]1C(=C)CC[C@@H]3[C@H](OC(=O)[C@H]3C)[C@H]12", "note": "[Compound 225]", "values": [{"measurement": "biological activity (initial SAR)", "setting": "NF-κB activation", "result": "inactive"}]}, {"smiles": "CC[C@@]1(O)C(=O)OCc2c1cc1n(c2=O)Cc2cc3cc(O)ccc3nc2-1", "note": "[HCPT, 10-hydroxycamptothecin, reference compound]", "values": [{"measurement": "side effects and body weight during administration", "setting": "[2]", "result": "significant body weight loss"}]}, {"smiles": "C=C1C(=O)O[C@@H]2[C@@H]3[C@@H](C[C@H](OC(=O)CCOCCOCCOCCNC(=O)CCCC[C@@H]4SC[C@@H]5NC(=O)N[C@@H]54)[C@]34CC[C@]3(O)[C@@H]5[C@H]6OC(=O)C(=C)[C@@H]6CCC(=C)[C@@H]5C[C@]43O)C(=C)CC[C@@H]12", "note": "[Probe]", "values": [{"measurement": "pull-down of IKKα (immunoblotting)", "setting": "IKKα", "result": "specifically pulled down"}, {"measurement": "pull-down of IKKβ (immunoblotting)", "setting": "IKKβ [3]", "result": "specifically pulled down"}, {"measurement": "interaction with recombinant IKKα", "setting": "recombinant Flag-IKKα", "result": "strong interaction"}, {"measurement": "binding to peptide #1", "setting": "[4]", "result": "could bind"}, {"measurement": "interaction with peptide #2", "setting": "[5]", "result": "interacted"}, {"measurement": "binding to peptides 1A, 2A, 1S and 2S", "setting": "[6]", "result": "lost the ability to bind"}, {"measurement": "association with peptides #3 and #4", "setting": "[7]", "result": "no association"}]}]}
